Reference: ChEMBL document CHEMBL3046085, “Synthesis, characterization and in vitro cytotoxic properties of some new Schiff and Mannich bases in Hep G2 cells” (Med Chem Res, 2011)
Converted amounts (≈) assume the structure as drawn.

Columns and labels:
HepG2 [1] = test: Cytotoxicity against Homo sapiens (human) HepG2 cells after 24 hr by MTT assay; type: functional, cell-based; conditions: HepG2, 24 h
HepG2 [2] = test: Cytotoxicity against Homo sapiens (human) HepG2 cells assessed as cell survival at 0.0001 g/l after 24 hr by MTT assay (reference value: 78.07 +/- 1.89 to 95.31 +/- 3.09%); type: functional; conditions: HepG2, 24 h, read-out: Survival
HepG2 [3] = test: Cytotoxicity against Homo sapiens (human) HepG2 cells assessed as cell survival at 0.1 g/l after 24 hr by MTT assay (reference value: 78.07 +/- 1.89 to 95.31 +/- 3.09%); type: functional; conditions: HepG2, 24 h, read-out: Survival
HepG2 [4] = test: Cytotoxicity against Homo sapiens (human) HepG2 cells assessed as cell survival at 0.001 g/l after 24 hr by MTT assay (reference value: 78.07 +/- 1.89 to 95.31 +/- 3.09%); type: functional; conditions: HepG2, 24 h, read-out: Survival
HepG2 [5] = test: Cytotoxicity against Homo sapiens (human) HepG2 cells assessed as cell survival at 0.01 g/l after 24 hr by MTT assay (reference value: 78.07 +/- 1.89 to 95.31 +/- 3.09%); type: functional; conditions: HepG2, 24 h, read-out: Survival

SMILES | IC50 (HepG2 [1]) | other results
Cc1ccccc1OCc1nn(CN2CCOCC2)c(=S)n1/N=C/c1c[nH]nc1-c1ccc(Cl)cc1 | 54 µg/mL (≈ 103 µM) | 
Fc1ccc(-c2n[nH]cc2/C=N/n2c(COc3ccccc3)n[nH]c2=S)cc1 | 71 µg/mL (≈ 180 µM) | 
Cc1ccc(OCc2nn(CN(c3ccccc3)c3ccccc3)c(=S)n2/N=C/c2c[nH]nc2-c2ccc(F)cc2)cc1 | 90 µg/mL (≈ 153 µM) | 
S=c1[nH]nc(COc2ccccc2)n1/N=C/c1c[nH]nc1-c1ccc(Cl)cc1 | 18 µg/mL (≈ 43.8 µM) | 
CCc1n[nH]cc1/C=N/n1c(COc2ccc(C)cc2)n[nH]c1=S | > 100 µg/mL | 
Cc1ccccc1OCc1n[nH]c(=S)n1/N=C/c1c[nH]nc1-c1ccc(F)cc1 | 48 µg/mL (≈ 118 µM) | 
Cc1ccc(OCc2nn(CN3CCOCC3)c(=S)n2/N=C/c2c[nH]nc2-c2ccc(F)cc2)cc1 | 34 µg/mL (≈ 67 µM) | 
COc1cccc2c1C(=O)c1c(O)c3c(c(O)c1C2=O)C[C@@](O)(C(=O)CO)C[C@@H]3O[C@H]1C[C@H](N)[C@H](O)[C@H](C)O1 [DOXORUBICIN] | 17 µg/mL (≈ 31.3 µM) | viability at 0.1 µg/mL (HepG2 [2]): 90%; viability at 100 µg/mL (HepG2 [3]): 35.9%; viability at 1 µg/mL (HepG2 [4]): 74.2%; viability at 10 µg/mL (HepG2 [5]): 51.2%
Cc1ccc(OCc2nn(CN3CCOCC3)c(=S)n2/N=C/c2c[nH]nc2-c2ccc(Cl)cc2)cc1 | 54 µg/mL (≈ 103 µM) | 
Cc1ccc(OCc2n[nH]c(=S)n2/N=C/c2c[nH]nc2-c2ccc(Cl)cc2)cc1 | 28 µg/mL (≈ 65.9 µM) | 
Cc1ccc(OCc2nn(CN(c3ccccc3)c3ccccc3)c(=S)n2/N=C/c2c[nH]nc2-c2ccc(Cl)cc2)cc1 | 97 µg/mL (≈ 160 µM) | 
Cc1ccccc1OCc1n[nH]c(=S)n1/N=C/c1c[nH]nc1-c1ccc(Cl)cc1 | 44 µg/mL (≈ 104 µM) | 
Cc1ccc(OCc2n[nH]c(=S)n2/N=C/c2c[nH]nc2-c2ccc(F)cc2)cc1 | 45 µg/mL (≈ 110 µM) | 
Fc1ccc(-c2n[nH]cc2/C=N/n2c(COc3ccccc3Cl)n[nH]c2=S)cc1 | 71 µg/mL (≈ 166 µM) | 
